Data from patent publication US6645983B1, “Pharmaceutical compositions comprising 4-quinolones for treating cancers” (Laboratoire L. Lafon, priority 1999, dated 2003).

tested on: SW1088; assay: MTT test, cytotoxic activity on non-clonogenic cell lines; assay type: cell-based; settings: Homo sapiens, 10^−5 M, 72 hours of incubation, control condition = 100%, mean value, read-out: mean optical density as percentage of control, SW1088
Description: (§1) The principle of the MTT test is based on the mitochondrial reduction, by the metabolically active live cells, of the yellow-colored product MTT (3-(4,5-dimethylthiazol-2-yl)-2,5-diphenyltetrazolium bromide) to a blue-colored product, formazan. The amount of formazan thus obtained is directly proportional to the amount of live cells present in the culture well(s). This amount of formazan is measured by spectrophotometry.
(§2) The cell lines are maintained as a monolayer culture at 37° C. in stoppered culture dishes containing MEM 25 MM HEPES (Minimum Essential Medium) base medium. This medium is suited to the growth of a range of various mammalian diploid or primary cells. This medium is then supplemented with:
(§3) The 12 human cancer cell lines which were used were obtained from the American Type Culture Collection (ATCC, Rockville, Md., USA). These 12 cell lines are:
SW1088 (code ATCC: HTB-12) which is an astro-cytoma,
(§4) Experimentally, 100 μl of a cell suspension containing 20 000 to 50 000 (depending on the cell type used) cells/ml of culture medium are inoculated -in 96-well flat-bottomed multi-well plates and are left to stand in an incubator at 37° C., 5% CO2 and 70% humidity. After an incubation time of 24 hours, the culture medium is replaced with 100 μl of fresh medium containing either the various test compounds—at concentrations varying from 10^−5 to 10^−10 M—or the solvent having served for dissolving the products to be tested (control condition). […] The microplates are thus incubated for 3 hours at 37° C., then centrifuged for 10 minutes at 400 g. The yellowish solution of MTT is removed and the blue formazan crystals formed in the cell region are dissolved in 100 μl or DMSO. The microplates are then shaken for 5 minutes. […] Software incorporated in the spectrophotometer calculates the average optical density values and the standard deviation (SD) and standard error of mean (SEM) values.

| SMILES | viability at 10 µM |
| --- | --- |
| COc1ccc(-c2cn(CCCN(C)C)c3cc(OC)cc(OC)c3c2=O)cc1 [CRL8357, N-[3-(Dimethylamino)propyl]-5,7-dimethoxy-3-(4-methoxyphenyl)-1,4-dihydro-4-quinolinone] | 69.6% |
| COc1ccc(-c2c[nH]c3cc(OC)ccc3c2=O)cc1 [CRL8358, 7-Methoxy-3-(4-methoxyphenyl)-1,4-dihydro-4-quinolinone] | 98.3% |
| COc1ccc2c(=O)c(-c3ccccc3)c[nH]c2c1 [CRL8359, 7-Methoxy-3-phenyl-1,4-dihydro-4-quinolinone] | 140% |

tested on: A549; assay: as above; assay type: cell-based; settings: Homo sapiens, 10^−5 M, 72 hours of incubation, control condition = 100%, mean value, read-out: mean optical density as percentage of control, A549
Description: as §1, §2, §3, §4

| SMILES | viability at 10 µM |
| --- | --- |
| COc1ccc(-c2cn(CCCN(C)C)c3cc(OC)cc(OC)c3c2=O)cc1 [CRL8357, N-[3-(Dimethylamino)propyl]-5,7-dimethoxy-3-(4-methoxyphenyl)-1,4-dihydro-4-quinolinone] | 73.3% |
| COc1ccc(-c2c[nH]c3cc(OC)ccc3c2=O)cc1 [CRL8358, 7-Methoxy-3-(4-methoxyphenyl)-1,4-dihydro-4-quinolinone] | 55% |
| COc1ccc2c(=O)c(-c3ccccc3)c[nH]c2c1 [CRL8359, 7-Methoxy-3-phenyl-1,4-dihydro-4-quinolinone] | 73.9% |

tested on: HCT-15; assay: as above; assay type: cell-based; settings: Homo sapiens, 10^−5 M, 72 hours of incubation, control condition = 100%, mean value, read-out: mean optical density as percentage of control, HCT-16
Description: as §1, §2, §3, §4

| SMILES | viability at 10 µM |
| --- | --- |
| COc1ccc(-c2cn(CCCN(C)C)c3cc(OC)cc(OC)c3c2=O)cc1 [CRL8357, N-[3-(Dimethylamino)propyl]-5,7-dimethoxy-3-(4-methoxyphenyl)-1,4-dihydro-4-quinolinone] | 79.5% |
| COc1ccc(-c2c[nH]c3cc(OC)ccc3c2=O)cc1 [CRL8358, 7-Methoxy-3-(4-methoxyphenyl)-1,4-dihydro-4-quinolinone] | 89.1% |
| COc1ccc2c(=O)c(-c3ccccc3)c[nH]c2c1 [CRL8359, 7-Methoxy-3-phenyl-1,4-dihydro-4-quinolinone] | 59.9% |

tested on: U-373MG; assay: as above; assay type: cell-based; settings: Homo sapiens, U373 MG; 10^−5 M, 72 hours of incubation, control condition = 100%, mean value; read-out: mean optical density as percentage of control, U-373MG
Description: as §1, §2, §3, §4

| SMILES | viability at 10 µM |
| --- | --- |
| COc1ccc(-c2cn(CCCN(C)C)c3cc(OC)cc(OC)c3c2=O)cc1 [CRL8357, N-[3-(Dimethylamino)propyl]-5,7-dimethoxy-3-(4-methoxyphenyl)-1,4-dihydro-4-quinolinone] | 96% |
| COc1ccc(-c2c[nH]c3cc(OC)ccc3c2=O)cc1 [CRL8358, 7-Methoxy-3-(4-methoxyphenyl)-1,4-dihydro-4-quinolinone] | 41% |
| COc1ccc2c(=O)c(-c3ccccc3)c[nH]c2c1 [CRL8359, 7-Methoxy-3-phenyl-1,4-dihydro-4-quinolinone] | 41.2% |

tested on: A-427; assay: as above; assay type: cell-based; settings: Homo sapiens, 10^−5 M, 72 hours of incubation, control condition = 100%, mean value, read-out: mean optical density as percentage of control, A-427
Description: as §1, §2, §3, §4

| SMILES | viability at 10 µM |
| --- | --- |
| COc1ccc(-c2cn(CCCN(C)C)c3cc(OC)cc(OC)c3c2=O)cc1 [CRL8357, N-[3-(Dimethylamino)propyl]-5,7-dimethoxy-3-(4-methoxyphenyl)-1,4-dihydro-4-quinolinone] | 59.5% |
| COc1ccc(-c2c[nH]c3cc(OC)ccc3c2=O)cc1 [CRL8358, 7-Methoxy-3-(4-methoxyphenyl)-1,4-dihydro-4-quinolinone] | 34.5% |
| COc1ccc2c(=O)c(-c3ccccc3)c[nH]c2c1 [CRL8359, 7-Methoxy-3-phenyl-1,4-dihydro-4-quinolinone] | 25.8% |

tested on: T-47D; assay: as above; assay type: cell-based; settings: Homo sapiens, T47D; 10^−5 M, 72 hours of incubation, control condition = 100%, mean value; read-out: mean optical density as percentage of control, T-47D
Description: as §1, §2, §3, §4

| SMILES | viability at 10 µM |
| --- | --- |
| COc1ccc(-c2cn(CCCN(C)C)c3cc(OC)cc(OC)c3c2=O)cc1 [CRL8357, N-[3-(Dimethylamino)propyl]-5,7-dimethoxy-3-(4-methoxyphenyl)-1,4-dihydro-4-quinolinone] | 94.1% |
| COc1ccc(-c2c[nH]c3cc(OC)ccc3c2=O)cc1 [CRL8358, 7-Methoxy-3-(4-methoxyphenyl)-1,4-dihydro-4-quinolinone] | 92.1% |
| COc1ccc2c(=O)c(-c3ccccc3)c[nH]c2c1 [CRL8359, 7-Methoxy-3-phenyl-1,4-dihydro-4-quinolinone] | 41.2% |

tested on: LoVo; assay: as above; assay type: cell-based; settings: Homo sapiens, 10^−5 M, 72 hours of incubation, control condition = 100%, mean value, read-out: mean optical density as percentage of control, LoVo
Description: as §1, §2, §3, §4

| SMILES | viability at 10 µM |
| --- | --- |
| COc1ccc(-c2cn(CCCN(C)C)c3cc(OC)cc(OC)c3c2=O)cc1 [CRL8357, N-[3-(Dimethylamino)propyl]-5,7-dimethoxy-3-(4-methoxyphenyl)-1,4-dihydro-4-quinolinone] | 97.9% |
| COc1ccc(-c2c[nH]c3cc(OC)ccc3c2=O)cc1 [CRL8358, 7-Methoxy-3-(4-methoxyphenyl)-1,4-dihydro-4-quinolinone] | 38% |
| COc1ccc2c(=O)c(-c3ccccc3)c[nH]c2c1 [CRL8359, 7-Methoxy-3-phenyl-1,4-dihydro-4-quinolinone] | 30.9% |

tested on: U-87MG; assay: as above; assay type: cell-based; settings: Homo sapiens, U-87 MG; 10^−5 M, 72 hours of incubation, control condition = 100%, mean value; read-out: mean optical density as percentage of control, U-87MG
Description: as §1, §2, §3, §4

| SMILES | viability at 10 µM |
| --- | --- |
| COc1ccc(-c2cn(CCCN(C)C)c3cc(OC)cc(OC)c3c2=O)cc1 [CRL8357, N-[3-(Dimethylamino)propyl]-5,7-dimethoxy-3-(4-methoxyphenyl)-1,4-dihydro-4-quinolinone] | 84.4% |
| COc1ccc(-c2c[nH]c3cc(OC)ccc3c2=O)cc1 [CRL8358, 7-Methoxy-3-(4-methoxyphenyl)-1,4-dihydro-4-quinolinone] | 80.1% |
| COc1ccc2c(=O)c(-c3ccccc3)c[nH]c2c1 [CRL8359, 7-Methoxy-3-phenyl-1,4-dihydro-4-quinolinone] | 114% |

tested on: MCF7; assay: as above; assay type: cell-based; settings: Homo sapiens, 10^−5 M, 72 hours of incubation, control condition = 100%, mean value, read-out: mean optical density as percentage of control, MCF7
Description: as §1, §2, §3, §4

| SMILES | viability at 10 µM |
| --- | --- |
| COc1ccc(-c2cn(CCCN(C)C)c3cc(OC)cc(OC)c3c2=O)cc1 [CRL8357, N-[3-(Dimethylamino)propyl]-5,7-dimethoxy-3-(4-methoxyphenyl)-1,4-dihydro-4-quinolinone] | 95.8% |
| COc1ccc(-c2c[nH]c3cc(OC)ccc3c2=O)cc1 [CRL8358, 7-Methoxy-3-(4-methoxyphenyl)-1,4-dihydro-4-quinolinone] | 84.1% |
| COc1ccc2c(=O)c(-c3ccccc3)c[nH]c2c1 [CRL8359, 7-Methoxy-3-phenyl-1,4-dihydro-4-quinolinone] | 65.8% |

tested on: PC-3; assay: as above; assay type: cell-based; settings: Homo sapiens, 10^−5 M, 72 hours of incubation, control condition = 100%, mean value, read-out: mean optical density as percentage of control, PC-3
Description: as §1, §2, §3, §4

| SMILES | viability at 10 µM |
| --- | --- |
| COc1ccc(-c2cn(CCCN(C)C)c3cc(OC)cc(OC)c3c2=O)cc1 [CRL8357, N-[3-(Dimethylamino)propyl]-5,7-dimethoxy-3-(4-methoxyphenyl)-1,4-dihydro-4-quinolinone] | 85.6% |
| COc1ccc(-c2c[nH]c3cc(OC)ccc3c2=O)cc1 [CRL8358, 7-Methoxy-3-(4-methoxyphenyl)-1,4-dihydro-4-quinolinone] | 89.1% |
| COc1ccc2c(=O)c(-c3ccccc3)c[nH]c2c1 [CRL8359, 7-Methoxy-3-phenyl-1,4-dihydro-4-quinolinone] | 123% |

tested on: not listed separately; assay: Determination of the maximum tolerated dose (MTD); settings: B6D2F1/Jico, mouse, in vivo, ip; single intraperitoneal administration, doses 2.5 to 160 mg/kg, survival over 14 days
Description: The evaluation of the maximum tolerated dose was performed on 4- to 6-week-old B6D2F1/Jico mice. The compounds were administered intraperitoneally at increasing doses ranging from 2.5 to 160 mg/kg. The value of the MTD (expressed in mg/kg) is determined from the observation of the survival rate of the animals over a 14-day period after a single administration of the product under consideration. The change in weight of the animals is also monitored during this period. When the MTD value is greater than 160 mg/kg, the MTD value is considered as being 160 mg/kg by default.

| SMILES | MTD at 14 day |
| --- | --- |
| COc1ccc(-c2cn(CCCN(C)C)c3cc(OC)cc(OC)c3c2=O)cc1 [CRL8357, N-[3-(Dimethylamino)propyl]-5,7-dimethoxy-3-(4-methoxyphenyl)-1,4-dihydro-4-quinolinone] | 80 mg/kg |
| COc1ccc(-c2c[nH]c3cc(OC)ccc3c2=O)cc1 [CRL8358, 7-Methoxy-3-(4-methoxyphenyl)-1,4-dihydro-4-quinolinone] | > 160 mg/kg |
| COc1ccc2c(=O)c(-c3ccccc3)c[nH]c2c1 [CRL8359, 7-Methoxy-3-phenyl-1,4-dihydro-4-quinolinone] | > 160 mg/kg |

tested on: J82; assay: MTT test, cytotoxic activity on non-clonogenic cell lines; assay type: cell-based; settings: Homo sapiens, 10^−5 M, 72 hours of incubation, control condition = 100%, mean value, read-out: mean optical density as percentage of control, J82
Description: as §1, §2, §3
(§5) J82 (code ATCC: HTB-1) and T24 (code ATCC: HTB-4) which are two bladder cancers,
as §4

| SMILES | viability at 10 µM |
| --- | --- |
| COc1ccc(-c2cn(CCCN(C)C)c3cc(OC)cc(OC)c3c2=O)cc1 [CRL8357, N-[3-(Dimethylamino)propyl]-5,7-dimethoxy-3-(4-methoxyphenyl)-1,4-dihydro-4-quinolinone] | 84.7% |
| COc1ccc(-c2c[nH]c3cc(OC)ccc3c2=O)cc1 [CRL8358, 7-Methoxy-3-(4-methoxyphenyl)-1,4-dihydro-4-quinolinone] | 92.7% |
| COc1ccc2c(=O)c(-c3ccccc3)c[nH]c2c1 [CRL8359, 7-Methoxy-3-phenyl-1,4-dihydro-4-quinolinone] | 52.2% |

tested on: T24; assay: as above; assay type: cell-based; settings: Homo sapiens, T-24; 10^−5 M, 72 hours of incubation, control condition = 100%, mean value; read-out: mean optical density as percentage of control, T24
Description: as §1, §2, §3, §5, §4

| SMILES | viability at 10 µM |
| --- | --- |
| COc1ccc(-c2cn(CCCN(C)C)c3cc(OC)cc(OC)c3c2=O)cc1 [CRL8357, N-[3-(Dimethylamino)propyl]-5,7-dimethoxy-3-(4-methoxyphenyl)-1,4-dihydro-4-quinolinone] | 99% |
| COc1ccc(-c2c[nH]c3cc(OC)ccc3c2=O)cc1 [CRL8358, 7-Methoxy-3-(4-methoxyphenyl)-1,4-dihydro-4-quinolinone] | 90.7% |
| COc1ccc2c(=O)c(-c3ccccc3)c[nH]c2c1 [CRL8359, 7-Methoxy-3-phenyl-1,4-dihydro-4-quinolinone] | 34.7% |
